In US10213433B2 (AbbVie Inc., priority 2010, dated 2019):

Molecular target: Bcl-2 protein (Homo sapiens (Human), UniProt P10415)
Assay: Bcl-2 binding TR-FRET (Time-Resolved Fluorescence-Resonance-Energy-Transfer) assay
Conditions: inhibition constant for binding to Bcl-2 protein
Text: The smaller the Ki value, the greater is the binding affinity.

Chain of Bcl-2 protein (P10415 whole entry): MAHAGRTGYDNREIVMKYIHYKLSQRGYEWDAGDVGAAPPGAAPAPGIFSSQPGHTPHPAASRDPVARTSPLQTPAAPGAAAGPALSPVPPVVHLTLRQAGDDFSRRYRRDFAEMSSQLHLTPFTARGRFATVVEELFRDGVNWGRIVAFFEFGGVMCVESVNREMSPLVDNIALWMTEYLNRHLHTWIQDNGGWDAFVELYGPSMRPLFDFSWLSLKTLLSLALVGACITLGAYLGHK

Row | Structure (SMILES) | Ki [nM]
1 | CC1(C)CCC(CN2CCN(c3ccc(C(=O)NS(=O)(=O)c4ccc(NC[C@H]5CCN(C6CCOCC6)C5)c([N+](=O)[O-])c4)c(Oc4cnc5[nH]ccc5c4)c3)CC2)=C(c2ccc(Cl)cc2)C1 [Compound 118, 4-(4-{[2-(4-chlorophenyl)-4,4-dimethylcyclohex-1-en-1-yl]methyl}piperazin-1-yl)-N-{[3-nitro-4-({[(3R)-1-tetrahydro-2H-pyran-4-ylpyrrolidin-3-yl]methyl}amino)phenyl]sulfonyl}-2-(1H-pyrrolo[2,3-b]pyridin-5-yloxy)benzamide] | < 0.01
2 | CC1(C)CCC(c2ccc(Cl)cc2)=C(CN2CCN(c3ccc(C(=O)NS(=O)(=O)c4ccc(OCC5(F)CCOCC5)c([N+](=O)[O-])c4)c(Oc4cnc5[nH]ccc5c4)c3)CC2)C1 [Compound 119, 4-(4-{[2-(4-chlorophenyl)-5,5-dimethylcyclohex-1-en-1-yl]methyl}piperazin-1-yl)-N-({4-[(4-fluorotetrahydro-2H-pyran-4-yl)methoxy]-3-nitrophenyl}sulfonyl)-2-(1H-pyrrolo[2,3-b]pyridin-5-yloxy)benzamide] | < 0.01
3 | CC1(C)CCC(CN2CCN(c3ccc(C(=O)NS(=O)(=O)c4ccc(NC[C@H]5CC[C@H](O)CC5)c([N+](=O)[O-])c4)c(Oc4cnc5[nH]ccc5c4)c3)CC2)=C(c2ccc(Cl)cc2)C1 [Compound 120] | < 0.01
4 | CC1(C)CCC(CN2CCN(c3ccc(C(=O)NS(=O)(=O)c4ccc(N[C@H]5CC[C@@H](NC6CC6)CC5)c([N+](=O)[O-])c4)c(Oc4cnc5[nH]ccc5c4)c3)CC2)=C(c2ccc(Cl)cc2)C1 [Compound 122, cis-4-(4-{[2-(4-chlorophenyl)-4,4-dimethylcyclohex-1-en-1-yl]methyl}piperazin-1-yl)-N-[(4-{[4-(cyclopropylamino)cyclohexyll]amino}-3-nitrophenyl)sulfonyll]-2-(1H-pyrrolo[2,3-b]pyridin-5-yloxy)benzamide] | < 0.01
5 | CC1(C)CCC(CN2CCN(c3ccc(C(=O)NS(=O)(=O)c4cnc(O[C@H]5CC[C@H](N6CCOCC6)CC5)c(Br)c4)c(Oc4cnc5[nH]ccc5c4)c3)CC2)=C(c2ccc(Cl)cc2)C1 [Compound 124] | < 0.01
6 | CC1(C)CCC(CN2CCN(c3ccc(C(=O)NS(=O)(=O)c4ccc(OCC5(F)CCN(C(=O)OC(C)(C)C)CC5)c([N+](=O)[O-])c4)c(Oc4cnc5[nH]ccc5c4)c3)CC2)=C(c2ccc(Cl)cc2)C1 [Compound 126, tert-butyl 4-{[4-({[4-(4-{[2-(4-chlorophenyl)-4,4-dimethylcyclohex-1-en-1-yl]methyl}piperazin-1-yl)-2-(1H-pyrrolo[2,3-b]pyridin-5-yloxy)benzoyl]amino}sulfonyl)-2-nitrophenoxy]methyl}-4-fluoropiperidine-1-carboxylate] | < 0.01
7 | CC1(C)CCC(CN2CCN(c3ccc(C(=O)NS(=O)(=O)c4ccc(OCC5(F)CCNCC5)c([N+](=O)[O-])c4)c(Oc4cnc5[nH]ccc5c4)c3)CC2)=C(c2ccc(Cl)cc2)C1 [Compound 127, 4-(4-{[2-(4-chlorophenyl)-4,4-dimethylcyclohex-1-en-1-yl]methyl}piperazin-1-yl)-N-({4-[(4-fluoropiperidin-4-yl)methoxy]-3-nitrophenyl}sulfonyl)-2-(1H-pyrrolo[2,3-b]pyridin-5-yloxy)benzamide] | < 0.01
8 | CC1(C)CCC(CN2CCN(c3ccc(C(=O)NS(=O)(=O)c4ccc(N[C@@H]5CCN(C6CCOCC6)C5)c([N+](=O)[O-])c4)c(Oc4cnc5[nH]ccc5c4)c3)CC2)=C(c2ccc(Cl)cc2)C1 [Compound 130, 4-(4-{[2-(4-chlorophenyl)-4,4-dimethylcyclohex-1-en-1-yl]methyl}piperazin-1-yl)-N-[(3-nitro-4-{[(3R)-1-tetrahydro-2H-pyran-4-ylpyrrolidin-3-yl]amino}phenyl)sulfonyl]-2-(1H-pyrrolo[2,3-b]pyridin-5-yloxy)benzamide] | < 0.01
9 | CC1(C)CCC(CN2CCN(c3ccc(C(=O)NS(=O)(=O)c4ccc(N[C@@H]5CCN(C6CCOC(C)(C)C6)C5)c([N+](=O)[O-])c4)c(Oc4cnc5[nH]ccc5c4)c3)CC2)=C(c2ccc(Cl)cc2)C1 (stereo partly drawn) [Compound 131, 4-(4-{[2-(4-chlorophenyl)-4,4-dimethylcyclohex-1-en-1-yl]methyl}piperazin-1-yl)-N-[(4-{[(3R)-1-(2,2-dimethyltetrahydro-2H-pyran-4-yl)pyrrolidin-3-yl]amino}-3-nitrophenyl)sulfonyl]-2-(1H-pyrrolo[2,3-b]pyridin-5-yloxy)benzamide] | < 0.01
10 | CC1(C)CCC(CN2CCN(c3ccc(C(=O)NS(=O)(=O)c4ccc(N[C@H]5CCN(C6CCOCC6)C5)c([N+](=O)[O-])c4)c(Oc4cnc5[nH]ccc5c4)c3)CC2)=C(c2ccc(Cl)cc2)C1 [Compound 132, 4-(4-{[2-(4-chlorophenyl)-4,4-dimethylcyclohex-1-en-1-yl]methyl}piperazin-1-yl)-N-[(3-nitro-4-{[(3S)-1-tetrahydro-2H-pyran-4-ylpyrrolidin-3-yl]amino}phenyl)sulfonyl]-2-(1H-pyrrolo[2,3-b]pyridin-5-yloxy)benzamide] | < 0.01
11 | CC1(C)CCC(CN2CCN(c3ccc(C(=O)NS(=O)(=O)c4ccc(N[C@H]5CCN(C6CCOC(C)(C)C6)C5)c([N+](=O)[O-])c4)c(Oc4cnc5[nH]ccc5c4)c3)CC2)=C(c2ccc(Cl)cc2)C1 (stereo partly drawn) [Compound 133, 4-(4-{[2-(4-chlorophenyl)-4,4-dimethylcyclohex-1-en-1-yl]methyl}piperazin-1-yl)-N-[(4-{[(3S)-1-(2,2-dimethyltetrahydro-2H-pyran-4-yl)pyrrolidin-3-yl]amino}-3-nitrophenyl)sulfonyl]-2-(1H-pyrrolo[2,3-b]pyridin-5-yloxy)benzamide] | < 0.01
12 | CN1CCOC(CNc2ccc(S(=O)(=O)NC(=O)c3ccc(N4CCN(CC5=C(c6ccc(Cl)cc6)CC(C)(C)CC5)CC4)cc3Oc3cnc4[nH]ccc4c3)cc2[N+](=O)[O-])C1 (stereo not shown) [Compound 134, 4-(4-{[2-(4-chlorophenyl)-4,4-dimethylcyclohex-1-en-1-yl]methyl}piperazin-1-yl)-N-[(4-{[(4-methylmorpholin-2-yl)methyl]amino}-3-nitrophenyl)sulfonyl]-2-(1H-pyrrolo[2,3-b]pyridin-5-yloxy)benzamide] | < 0.01
13 | COCCN1CCOC(CNc2ccc(S(=O)(=O)NC(=O)c3ccc(N4CCN(CC5=C(c6ccc(Cl)cc6)CC(C)(C)CC5)CC4)cc3Oc3cnc4[nH]ccc4c3)cc2[N+](=O)[O-])C1 (stereo not shown) [Compound 135, 4-(4-{[2-(4-chlorophenyl)-4,4-dimethylcyclohex-1-en-1-yl]methyl}piperazin-1-yl)-N-{[4-({[4-(2-methoxyethyl)morpholin-2-yl]methyl}amino)-3-nitrophenyl]sulfonyl}-2-(1H-pyrrolo[2,3-b]pyridin-5-yloxy)benzamide] | < 0.01
14 | CC(=O)N1CCOC(CNc2ccc(S(=O)(=O)NC(=O)c3ccc(N4CCN(CC5=C(c6ccc(Cl)cc6)CC(C)(C)CC5)CC4)cc3Oc3cnc4[nH]ccc4c3)cc2[N+](=O)[O-])C1 (stereo not shown) [Compound 136, N-[(4-{[(4-acetylmorpholin-2-yl)methyl]amino}-3-nitrophenyl)sulfonyl]-4-(4-{[2-(4-chlorophenyl)-4,4-dimethylcyclohex-1-en-1-yl]methyl}piperazin-1-yl)-2-(1H-pyrrolo[2,3-b]pyridin-5-yloxy)benzamide] | < 0.01
15 | CC1(C)CCC(CN2CCN(c3ccc(C(=O)NS(=O)(=O)c4ccc(NCC5(F)CCOCC5)c([N+](=O)[O-])c4)c(Oc4cnc5[nH]ccc5c4)c3)CC2)=C(c2ccc(Cl)cc2)C1 [Compound 138, 4-(4-{[2-(4-chlorophenyl)-4,4-dimethylcyclohex-1-en-1-yl]methyl}piperazin-1-yl)-N-[(4-{[(4-fluorotetrahydro-2H-pyran-4-yl)methyl]amino}-3-nitrophenyl)sulfonyl]-2-(1H-pyrrolo[2,3-b]pyridin-5-yloxy)benzamide] | < 0.01
16 | CC1(C)CCC(CN2CCN(c3ccc(C(=O)NS(=O)(=O)c4ccc(NC5CCN(C6COC6)CC5)c([N+](=O)[O-])c4)c(Oc4cnc5[nH]ccc5c4)c3)CC2)=C(c2ccc(Cl)cc2)C1 [Compound 139, 4-(4-{[2-(4-chlorophenyl)-4,4-dimethylcyclohex-1-en-1-yl]methyl}piperazin-1-yl)-N-({3-nitro-4-[(1-oxetan-3-ylpiperidin-4-yl)amino]phenyl}sulfonyl)-2-(1H-pyrrolo[2,3-b]pyridin-5-yloxy)benzamide] | < 0.01
17 | CC1(C)CCC(CN2CCN(c3ccc(C(=O)NS(=O)(=O)c4ccc(NC5CCN(C6CCC6)CC5)c([N+](=O)[O-])c4)c(Oc4cnc5[nH]ccc5c4)c3)CC2)=C(c2ccc(Cl)cc2)C1 [Compound 140, 4-(4-{[2-(4-chlorophenyl)-4,4-dimethylcyclohex-1-en-1-yl]methyl}piperazin-1-yl)-N-({4-[(1-cyclobutylpiperidin-4-yl)amino]-3-nitrophenyl}sulfonyl)-2-(1H-pyrrolo[2,3-b]pyridin-5-yloxy)benzamide] | < 0.01
18 | CC1(C)CCC(CN2CCN(c3ccc(C(=O)NS(=O)(=O)c4ccc(NC5CCN(C6CCOC(C)(C)C6)CC5)c([N+](=O)[O-])c4)c(Oc4cnc5[nH]ccc5c4)c3)CC2)=C(c2ccc(Cl)cc2)C1 (stereo not shown) [Compound 141, 4-(4-{[2-(4-chlorophenyl)-4,4-dimethylcyclohex-1-en-1-yl]methyl}piperazin-1-yl)-N-[(4-{[1-(2,2-dimethyltetrahydro-2H-pyran-4-yl)piperidin-4-yl]amino}-3-nitrophenyl)sulfonyl]-2-(1H-pyrrolo[2,3-b]pyridin-5-yloxy)benzamide] | < 0.01
19 | CC1(C)CCC(CN2CCN(c3ccc(C(=O)NS(=O)(=O)c4ccc(NC5CCN(C6CCOC6)CC5)c([N+](=O)[O-])c4)c(Oc4cnc5[nH]ccc5c4)c3)CC2)=C(c2ccc(Cl)cc2)C1 (stereo not shown) [Compound 143, 4-(4-{[2-(4-chlorophenyl)-4,4-dimethylcyclohex-1-en-1-yl]methyl}piperazin-1-yl)-N-({3-nitro-4-[(1-tetrahydrofuran-3-ylpiperidin-4-yl)amino]phenyl}sulfonyl)-2-(1H-pyrrolo[2,3-b]pyridin-5-yloxy)benzamide] | < 0.01
